From publication PMC6389928, “Biomolecular Interaction, Anti-Cancer and Anti-Angiogenic Properties of Cobalt(III) Schiff Base Complexes” (Scientific Reports, 2019)
Like-named read-outs stand apart in the source and are kept apart here.

Assays:
DNA = test: Viscosity measurement of DNA; type: binding; settings: 30.0 ± 0.2 °C, increasing amounts of compound
From the text: The mode of interaction between DNA and complexes has been further confirmed using viscosity measurements. The intercalation between DNA and metal complex causes lengthening of the DNA helix and increases DNA’s relative viscosity. Ethidium bromide (EB) is a well known DNA intercalator which was used as a standard to make sure our viscosity determination was working properly. […] The increase in relative viscosity follows the DNA-intercalating ability and the order of relative viscosity is EB > 2 > 1.
CD spectra of CT–DNA in the absence and presence of cobalt(III) complexes 1 and 2 were recorded in phosphate buffer. Each sample solution was scanned in the range of 200–320 nm, and final CD spectra were generated after averaging three scans subtracting the buffer background. Viscosity experiments were performed using an Ubbelohde viscometer at a constant temperature (30.0 ± 0.2 °C).

BSA = BSA (Bos taurus, UniProt P02769); settings: for Quenching Constant (kq): τ0 assumed 10^−8 s; for ∆G° / ∆H° / ∆S°: BSA binding; for ∆H° / ∆S°: van't Hoff plot 285-299 K
Method: The obtained fluorescence quenching results were analyzed using the Stern-Volmer eqation, F0/F=1+Ksv[Q]kq=Ksv/τ0 where F0 and F are the fluorescence emission intensities of BSA in the absence and presence of complexes 1 and 2. KSV is the Stern-Volmer quenching constant, [Q] is concentration of the complexes 1 and 2, kq is the quenching rate constant of BSA and τ0 is the average lifetime of the emitter in the absence of quencher. The above equation was applied to determine KSV by linear regression of a plot of F0/F against [Q].
Normally, quenching can take place either as dynamic quenching, static quenching or a combination of both mechanisms. Static quenching refers to fluorophore-quencher complex formation in the ground state while dynamic quenching refers to a process in which the fluorophores and the quencher come into contact during the transient existence of the excited state[57],[58]. The plots of F0/F versus [Q]
For the static quenching process, the binding constant (Kb) and the number of binding sites (n) can be determined by the following equation[62] log[(F0−F)]/F=logKb+nlog[Q] where F0 and F are the fluorescence intensities of the emitter in the absence and presence of the quencher, respectively, and [Q] the concentration of the quencher. Thus, a plot of log F0 − F/F versus log [Q] (Fig. 3) was used to determine Kb.
In general, intermolecular interacting forces between a small molecule and a biomacromolecule include hydrogen bonding, van der Waals force, and electrostatic and hydrophobic interactions. The thermodynamic parameters, enthalpy change (ΔH°) and entropy change (ΔS°) of the binding are important for confirming the binding mode. For this reason, these thermodynamic parameters have been calculated using the equation, lnKb=−ΔH°/RT+ΔS°/RΔG°=ΔH°−TΔS°=−RTInKb where Kb is the binding constant at the corresponding temperature, and R is the gas constant. The ΔH° and ΔS° values are calculated from the slope and intercept from plotting ln Kb versus 1/T (Fig. 3).
The concentration of BSA prepared in PBS buffer (pH = 7.4) was determined spectrophotometrically using the extinction coefficient of 43,800 M^−1 cm^−1 at 280 nm[80]. The fluorescence spectra of BSA were recorded at room temperature with an excitation wavelength of BSA at 280 nm and the emission at 350 nm by keeping the concentration of BSA constant (1.35 × 10^−[…]) while increasing the cobalt(III) complex concentration regularly.

A549 lung carcinoma cell = test: MTT assay on A549 cells; settings: A549 cell, 24 h
From the text: The anti-proliferative property of the complexes 1 and 2 at different concentrations on A549 lung carcinoma cell and monkey kidney epithelial cell Vero was examined by adopting MTT assay (Fig. S7). […] The naked cobalt acetate and ligands salen and salophen were separately tested on A549 cells to understand if metal chelation is the principal basis of the anticancer activity of the complexes.
Culture: Human lung cancer cells (A549) were received from National Centre for Cell Science (NCCS) Pune, India. Vero cells were obtained from ATCC. The cells were grown at humidified atmosphere of 5% CO2 in an incubator at 37 °C (Forma, Thermo Scientific, USA) in DMEM medium (Invitrogen) containing 10% FBS (Sigma-Aldrich, St. Louis, Mo, USA), 100 μg/mL of penicillin and 100 μg/mL streptomycin were used as antibiotics (Himedia, Mumbai, India). […] The cells were seeded in 96 well plates (5000 A549 cells per well) and allowed to attach for 24 h. The cells were then incubated with different concentrations of the metal complexes 1 and 2 dissolved in 100% dimethyl sulfoxide (DMSO) (Sigma-Aldrich) and prepared to a final dilution of 0.02% of DMSO.
In the determination of IC50 value, 0.02% DMSO was used as the solvent control. After the end of incubation period (24 h), the medium was aspirated carefully and replaced with new medium. The formazan formed was dissolved in100 μL of 100% DMSO to each well. The absorbance was monitored at 570 nm using a 96 well plate reader (Bio-Rad, Hercules, California, USA). All experiments were repeated for a minimum of three times when each experiment was done in two replicates.

EB - DNA = test: Competitive binding with ethidium bromide: fluorescence quenching of EB - DNA; settings: quenching of EB-DNA emission, F0/F vs [complex]/[DNA], λex 450 nm
From the text: The complexes 1 and 2 are non-emissive in nature. […] In this study, changes in the intensity of the fluorescence emission band of EB - DNA complex were monitored after the addition of metal complexes 1 and 2 (Fig. 2). Upon increasing complex concentration in the DNA-EB solution, EB emission intensity was decreased. […] The resulting data (Table 1) of the complexes 1 and 2 with EB-DNA was processed from the standard Stern-Volmer equation[38], F0/F=1+Ksvr where F0 and F are the fluorescence emission intensities in the absence and presence of quencher (i.e. complexes 1 and 2), r is the ratio of concentration of the quencher. Ksv is the Stern-Volmer quenching constant.
For fluorescence quenching experiments, nucleic acids solution was pretreated with ethidium bromide (EB) for 30 min. Solutions of cobalt(III) complexes were then added to this mixture and their effect on the emission intensity was measured. The samples were excited at 450 nm and emission was observed between 500 and 750 nm.

Sequence of BSA (P02769 25-607): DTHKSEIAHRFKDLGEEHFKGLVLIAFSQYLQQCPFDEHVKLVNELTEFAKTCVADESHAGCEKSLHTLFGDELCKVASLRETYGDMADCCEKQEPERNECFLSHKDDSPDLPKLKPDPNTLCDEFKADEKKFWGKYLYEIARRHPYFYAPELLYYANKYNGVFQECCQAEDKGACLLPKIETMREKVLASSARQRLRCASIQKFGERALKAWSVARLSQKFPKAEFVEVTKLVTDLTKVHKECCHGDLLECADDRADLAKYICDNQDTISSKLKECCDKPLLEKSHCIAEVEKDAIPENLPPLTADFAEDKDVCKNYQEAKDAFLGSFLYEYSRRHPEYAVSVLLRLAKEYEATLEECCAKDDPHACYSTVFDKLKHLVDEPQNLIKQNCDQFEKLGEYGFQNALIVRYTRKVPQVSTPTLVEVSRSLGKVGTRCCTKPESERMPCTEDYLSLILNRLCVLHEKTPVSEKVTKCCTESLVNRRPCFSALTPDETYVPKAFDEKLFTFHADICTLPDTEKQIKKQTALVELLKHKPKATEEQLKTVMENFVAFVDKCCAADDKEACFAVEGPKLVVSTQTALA

Row | Structure (SMILES) | effect on relative viscosity of DNA (DNA) | Quenching Constant (kq) (BSA; 285 K) | Quenching Constant (kq) (BSA; 292 K) | Quenching Constant (kq) (BSA; 299 K) | ∆G° (BSA; 285 K) [kcal/mol] | ∆G° (BSA; 292 K) [kcal/mol] | ∆G° (BSA; 299 K) [kcal/mol] | ∆H° (BSA) | ∆S° (BSA) | IC50 (A549 lung carcinoma cell) [µM] | Stern–Volmer constant (Ksv) (EB - DNA)
1 | CCCCCCCCCCCC[NH2+][Co-3]123([NH2+]CCCCCCCCCCCC)[O]c4ccccc4C=[N+]1c1ccccc1[N+]2=Cc1ccccc1[O]3.[O-][Cl+3]([O-])([O-])[O-] [Complex 2, trans-[Co(salophen)(DA)2](ClO4)] | the relative viscosity of DNA increased | 1.4802 10^13 M^−1 s^−1 | 1.2245 10^13 M^−1 s^−1 | 1.0114 10^13 M^−1 s^−1 | -5.6506 | -6.0217 | -6.9336 | +85.617 kJ mol^−1 | +383.182 J mol^−1 K^−1 | 65 | 0.6067
2 | CCCCCCCCCCCC[NH2+][Co-3]123([NH2+]CCCCCCCCCCCC)[O]c4ccccc4C=[N+]1CC[N+]2=Cc1ccccc1[O]3.[O-][Cl+3]([O-])([O-])[O-] [Complex 1, trans-[Co(salen)(DA)2](ClO4)] | the relative viscosity of DNA increased | 1.6763 10^13 M^−1 s^−1 | 1.3531 10^13 M^−1 s^−1 | 1.0862 10^13 M^−1 s^−1 | -6.238 | -6.7008 | -7.4297 | +69.429 kJ mol^−1 | +335.928 J mol^−1 K^−1 | 80 | 0.5694
